Test results published in patent US20230009626A1 (ICHNOS SCIENCES S.A., priority 2018, published 2023).
Counter-ions that a name gives are not always drawn.

Biological target: HPK1 (MAP4K1) (Homo sapiens, UniProt Q92918)
Experiment: FRET Assay for HPK1 (MAP4K1): one step binding assay, displacement of labeled tracer
Conditions: for inhibition at 1 µM: 1 μM compound; for inhibition at 1 µM / inhibition at 10 µM: FRET ratio 665/620, percent of control; for inhibition at 10 µM: 10 μM compound; for IC50: dose response curve, nonlinear regression
How it was run: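 TR-FRET tracer-displacement binding assay. GST-tagged HPK1 (10 nM) and Eu-anti-GST antibody (4 nM) were pre-incubated with compound on ice for 15 min in 50 mM HEPES pH 7.5, 10 mM MgCl2, 1 mM EGTA, 0.01% Brij-35 (3% DMSO final). Kinase Tracer 222 (20 nM) was then added for 1 h at room temperature. IC50 came from nonlinear regression of percent of control; percent inhibition was also given at 1.0 and 10.0 μM.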

Chain of HPK1 (MAP4K1) (Q92918 whole entry): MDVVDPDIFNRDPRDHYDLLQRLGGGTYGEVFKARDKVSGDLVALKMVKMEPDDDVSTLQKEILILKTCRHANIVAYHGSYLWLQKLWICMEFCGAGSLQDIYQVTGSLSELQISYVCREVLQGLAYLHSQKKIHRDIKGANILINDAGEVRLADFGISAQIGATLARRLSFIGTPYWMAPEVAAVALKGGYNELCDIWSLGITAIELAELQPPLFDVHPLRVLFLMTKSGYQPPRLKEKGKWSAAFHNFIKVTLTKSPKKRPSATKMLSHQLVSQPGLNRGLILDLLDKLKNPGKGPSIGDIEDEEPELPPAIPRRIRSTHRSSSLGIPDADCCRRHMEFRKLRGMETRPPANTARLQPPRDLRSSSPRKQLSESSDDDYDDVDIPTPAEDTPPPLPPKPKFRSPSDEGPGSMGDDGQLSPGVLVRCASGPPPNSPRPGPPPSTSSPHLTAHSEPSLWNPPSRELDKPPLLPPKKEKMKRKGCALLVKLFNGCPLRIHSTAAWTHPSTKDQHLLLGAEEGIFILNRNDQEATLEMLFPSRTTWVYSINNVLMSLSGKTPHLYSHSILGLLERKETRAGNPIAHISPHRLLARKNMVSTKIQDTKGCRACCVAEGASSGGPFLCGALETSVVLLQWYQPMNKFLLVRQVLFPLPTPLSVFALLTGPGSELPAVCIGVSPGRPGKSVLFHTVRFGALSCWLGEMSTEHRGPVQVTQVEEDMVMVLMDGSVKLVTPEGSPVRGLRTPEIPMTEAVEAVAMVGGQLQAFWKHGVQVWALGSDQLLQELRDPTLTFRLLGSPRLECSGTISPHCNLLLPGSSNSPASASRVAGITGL

Row | Compound | inhibition at 1 µM [%] | inhibition at 10 µM [%] | IC50 [nM]
1 | COc1cccc(F)c1-c1cc2c(cn1)NC(=O)/C2=C(/C)NC1CCNCC1 [Example 72, (Z)-5-(2-Fluoro-6-methoxyphenyl)-3-(1-(piperidin-4-ylamino)ethylidene)-1H-pyrrolo[2,3-c]pyridin-2(3H)-one trihydrochloride] | 39.8 | 68.6 | –
2 | C/C(Nc1ccn(C(C)C#N)n1)=C1/C(=O)Nc2cnc(-c3cnccc3C)cc21 (stereo in doubt) [Example 116] | 75.9 | – | < 50
3 | COc1cccc(F)c1-c1cc2c(cn1)NC(=O)/C2=C(/C)Nc1cnn(C(C)(C)C#N)c1 [Example 82, (Z)-2-(4-((1-(5-(2-Fluoro-6-methoxyphenyl)-2-oxo-1H-pyrrolo[2,3-c]pyridin-3(2H)-ylidene)ethyl)amino)-1H-pyrazol-1-yl)-2-methylpropanenitrile] | 70.6 | 79.9 | < 50
4 | COc1cccc(F)c1-c1cc2c(cc1C#N)NC(=O)/C2=C(/C)Nc1cnn(C)c1 [Example 71, (Z)-5-(2-Fluoro-6-methoxyphenyl)-3-(1-((1-methyl-1H-pyrazol-4-yl)amino)ethylidene)-2-oxoindoline-6-carbonitrile] | 71.7 | 72.7 | < 50
5 | CCn1ccc(N/C(C)=C2\C(=O)Nc3cnc(-c4cnccc4C)cc32)n1 [Example 73, (Z)-3-(1-((1-Ethyl-1H-pyrazol-3-yl)amino)ethylidene)-5-(4-methylpyridin-3-yl)-1H-pyrrolo[2,3-c]pyridin-2(3H)-one] | 69.6 | 63.9 | < 50
6 | C/C(Nc1cnn(C(C)(C)C#N)c1)=C1/C(=O)Nc2ccc(-c3cnccc3C)nc21 [Example 105, (Z)-2-Methyl-2-(4-((1-(5-(4-methylpyridin-3-yl)-2-oxo-1H-pyrrolo[3,2-b]pyridin-3(2H)-ylidene)ethyl)amino)-1H-pyrazol-1-yl)propanenitrile] | 79.8 | 84.4 | < 50
7 | C/C(Nc1cnn(C)c1)=C1/C(=O)Nc2ccc(-c3cnccc3C)nc21 [Example 62, (Z)-3-(1-((1-Methyl-1H-pyrazol-4-yl)amino)ethylidene)-5-(4-methylpyridin-3-yl)-1H-pyrrolo[3,2-b]pyridin-2(3H)-one] | 80.3 | 94.7 | < 50
8 | COc1cccc(F)c1-c1ccc2c(c1)/C(=C(\C)Nc1ccc(N3CCN(C)CC3)cc1C)C(=O)N2 [Example 11, (Z)-5-(2-Fluoro-6-methoxyphenyl)-3-(1-((2-methyl-4-(4-methylpiperazin-1-yl)phenyl)amino)ethylidene)indolin-2-one] | 73.2 | 84.4 | 100 to 500
9 | COc1cccc(F)c1-c1cnc2c(c1)/C(=C(\C)Nc1cnn(C)c1)C(=O)N2 [Example 56, (Z)-5-(2-Fluoro-6-methoxyphenyl)-3-(1-((1-methyl-1H-pyrazol-4-yl)amino)ethylidene)-1H-pyrrolo[2,3-b]pyridin-2(3H)-one] | 66.8 | 75.2 | 100 to 500
10 | COc1cc2c(cc1N/C(C)=C1\C(=O)Nc3ccc(-c4c(F)cccc4OC)cc31)CNCC2 [Example 12, (Z)-5-(2-Fluoro-6-methoxyphenyl)-3-(1-((6-methoxy-1,2,3,4-tetrahydroisoquinolin-7-yl)amino)ethylidene)indolin-2-one. PTSA salt] | 48 | 55.8 | > 500
11 | COc1ccncc1-c1cc2c(cn1)NC(=O)/C2=C(/C)Nc1ccn(C)n1 [Example 68, (Z)-5-(4-Methoxypyridin-3-yl)-3-(1-((1-methyl-1H-pyrazol-3-yl)amino)ethylidene)-1H-pyrrolo[2,3-c]pyridin-2(3H)-one] | 77.5 | 75.3 | < 50
12 | CC/C(Nc1ccn(C(C)(C)C#N)n1)=C1/C(=O)Nc2cnc(-c3cnccc3C)cc21 [Example 92, (Z)-2-Methyl-2-(3-((1-(5-(4-methylpyridin-3-yl)-2-oxo-1H-pyrrolo[2,3-c]pyridin-3(2H)-ylidene)propyl)amino)-1H-pyrazol-1-yl)propanenitrile] | 77 | 80.3 | < 50
13 | C/C(Nc1ccn(CC(=O)N2CCOCC2)n1)=C1/C(=O)Nc2cnc(-c3cnccc3C)cc21 [Example 131, (Z)-5-(4-Methylpyridin-3-yl)-3-(1-((1-(2-morpholino-2-oxoethyl)-1H-pyrazol-3-yl)amino)ethylidene)-1H-pyrrolo[2,3-c]pyridin-2(3H)-one] | 82.2 | 83.7 | < 50
14 | C/C(Nc1cc2n(n1)CCN(C)C2=O)=C1/C(=O)Nc2cnc(-c3cnccc3C)cc21 [Example 127, (Z)-5-Methyl-2-((1-(5-(4-methylpyridin-3-yl)-2-oxo-1H-pyrrolo[2,3-c]pyridin-3(2H)-ylidene)ethyl)amino)-6,7-dihydropyrazolo[1,5-a]pyrazin-4(5H)-onc] | 75.1 | 81.5 | < 50
15 | COc1cccc(F)c1-c1ccc2c(c1)/C(=C(\C)Nc1cnn(C)c1)C(=O)N2 [Example 10, (Z)-5-(2-Fluoro-6-methoxyphenyl)-3-(1-((1-methyl-1H-pyrazol-4-yl)amino)ethylidene)indolin-2-one] | 82.6 | 88.2 | < 50
16 | CC/C(Nc1cnn(C)c1)=C1/C(=O)Nc2ccc(-c3c(F)cccc3OC)cc21 [Example 17, (Z)-5-(2-Fluoro-6-methoxyphenyl)-3-(1-((1-methyl-1H-pyrazol-4-yl)amino)propylidene)indolin-2-one] | 85.7 | 83.3 | < 50

Now from value to compound:

Row | inhibition at 1 µM [%] | inhibition at 10 µM [%] | IC50 [nM] | Compound
17 | 69.6 | 82.2 | < 50 | C/C(Nc1cc(C)n(C)n1)=C1/C(=O)Nc2cnc(-c3c(C)cccc3F)cc21 [Example 191, (Z)-3-(1-((1,5-dimethyl-1H-pyrazol-3-yl)amino)ethylidene)-5-(2-fluoro-6-methylphenyl)-1H-pyrrolo[2,3-c]pyridin-2(3H)-one]
18 | 62.9 | 75.7 | < 50 | C/C(Nc1cnn(CCC(C)(C)O)c1)=C1/C(=O)Nc2cnc(-c3cnccc3C)cc21 [Example 166, (Z)-3-(1-((1-(3-Hydroxy-3-methylbutyl)-1H-pyrazol-4-yl)amino)ethylidene)-5-(4-methylpyridin-3-yl)-1H-pyrrolo[2,3-c]pyridin-2(3H)-one]
19 | 68 | 77.8 | < 50 | C/C(Nc1ncc(C)s1)=C1/C(=O)Nc2cnc(-c3cnccc3C)cc21 [Example 178, (Z)-5-(4-Methylpyridin-3-yl)-3-(1-((5-methylthiazol-2-yl)amino)ethylidene)-1H-pyrrolo[2,3-c]pyridin-2(3H)-one]
20 | 67.6 | 76.7 | < 50 | C/C(Nc1ccn(CC2(O)CC2)n1)=C1/C(=O)Nc2cnc(-c3cnccc3C)cc21 [Example 168, (Z)-3-(1-((1-((1-Hydroxycyclopropyl)methyl)-1H-pyrazol-3-yl)amino)ethylidene)-5-(4-methylpyridin-3-yl)-1H-pyrrolo[2,3-c]pyridin-2(3H)-one]
21 | 70.1 | 70.3 | < 50 | C/C(Nc1cc(C)n(CC(F)F)n1)=C1/C(=O)Nc2cnc(-c3cnccc3C)cc21 [Example 170, (Z)-3-(1-((1-(2,2-Difluoroethyl)-5-methyl-1H-pyrazol-3-yl)amino)ethylidene)-5-(4-methylpyridin-3-yl)-1H-pyrrolo[2,3-c]pyridin-2(3H)-one]
22 | 83.6 | 85.2 | < 50 | C/C(Nc1ccn([C@@H](C)CO)n1)=C1/C(=O)Nc2cnc(-c3cnccc3C)cc21 [Example 134, (S,Z)-3-(1-((1-(1-Hydroxypropan-2-yl)-1H-pyrazol-3-yl)amino)ethylidene)-5-(4-methylpyridin-3-yl)-1H-pyrrolo[2,3-c]pyridin-2(3H)-one]
23 | 90.7 | – | < 50 | C/C(Nc1ccn(C)n1)=C1/C(=O)Nc2cnc(-c3cncc4c3OCC(=O)N4)cc21 [Example 138, (Z)-8-(3-(1-((1-Methyl-1H-pyrazol-3-yl)amino)ethylidene)-2-oxo-2,3-dihydro-1H-pyrrolo[2,3-c]pyridin-5-yl)-2H-pyrido[4,3-b][1,4]oxazin-3(4H)-one]
24 | 60.6 | 80 | 50 to 100 | C/C(Nc1cnn(C[C@H](C)O)c1)=C1/C(=O)Nc2cnc(-c3cnccc3C)cc21 [Example 156, (S,Z)-3-(1-((1-(2-Hydroxypropyl)-1H-pyrazol-4-yl)amino)ethylidene)-5-(4-methylpyridin-3-yl)-1H-pyrrolo[2,3-c]pyridin-2(3H)-one]
25 | 66.4 | 19.6 | – | C/C(Nc1cnn(C)c1)=C1/C(=O)Nc2cnc(-c3cc(C#N)ccc3C)cc21 [Example 187, (Z)-4-Methyl-3-(3-(1-((1-methyl-1H-pyrazol-4-yl)amino)ethylidene)-2-oxo-2,3-dihydro-1H-pyrrolo[2,3-c]pyridin-5-yl)benzonitrile]
26 | 62.1 | 68.3 | < 50 | C/C(Nc1cc2n(n1)CCOC2)=C1/C(=O)Nc2cnc(-c3c(C)cccc3F)cc21 [Example 192, (Z)-3-(1-((6,7-Dihydro-4H-pyrazolo[5,1-c][1,4]oxazin-2-yl)amino)ethylidene)-5-(2-fluoro-6-methylphenyl)-1H-pyrrolo[2,3-c]pyridin-2(3H)-one]
